Molecular target: MAPK14 (human) (UniProt Q16539)
Test: Inhibition of LPS Induced IL-1Beta Production in Huamn PBMC

Sequence of MAPK14 (human) (Q16539 whole entry, looked up): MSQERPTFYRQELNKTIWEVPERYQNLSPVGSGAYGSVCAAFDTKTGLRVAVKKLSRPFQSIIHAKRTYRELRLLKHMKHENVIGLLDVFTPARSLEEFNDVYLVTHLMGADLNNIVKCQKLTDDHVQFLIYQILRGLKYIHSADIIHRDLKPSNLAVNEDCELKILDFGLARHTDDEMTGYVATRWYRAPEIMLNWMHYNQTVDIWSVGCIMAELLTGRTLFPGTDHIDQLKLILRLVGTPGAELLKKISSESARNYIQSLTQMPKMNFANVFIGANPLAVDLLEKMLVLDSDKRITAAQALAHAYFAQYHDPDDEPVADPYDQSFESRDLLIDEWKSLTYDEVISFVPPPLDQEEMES

IC50 | SMILES
39 nM | COC[C@H](C)Nc1nccc(-c2c(-c3ccc(F)cc3)c(=O)n3n2CCC3)n1
42 nM | C[C@H](Nc1nccc(-c2c(-c3ccc(F)cc3)c(=O)n3n2CCC3)n1)C(C)(C)O
0.8 nM | C[C@H](Nc1nccc(-c2c(-c3ccc(F)cc3)c(=O)n3n2CCC3)n1)c1ccccc1

Molecular target: MAPK14 (human) (UniProt Q16539)
Test: Inhibition of LPS Induced TNF-alpha Production in THP1 Cells

SMILES | IC50
COC[C@H](C)Nc1nccc(-c2c(-c3ccc(F)cc3)c(=O)n3n2CCCC3)n1 | 543 nM
O=c1c(-c2ccc(F)cc2)c(-c2ccnc(Nc3c(Cl)ncnc3Cl)n2)n2n1CCC2 | 476 nM
CC[C@H](C)Nc1nccc(-c2c(-c3ccc(F)cc3)c(=O)n3n2CCCC3)n1 | 106 nM
COC[C@H](C)Nc1nccc(-c2c(-c3ccc(F)cc3)c(=O)n3n2CCC3)n1 | 50 nM
O=c1c(-c2ccc(F)cc2)c(-c2ccnc(Nc3ccccc3)n2)n2n1CCC2 | 80 nM
O=c1c(-c2ccc(F)cc2)c(-c2ccnc(Nc3ccccn3)n2)n2n1CCC2 | 600 nM
COC(=O)[C@H](Nc1nccc(-c2c(-c3ccc(F)cc3)c(=O)n3n2CCC3)n1)c1ccccc1 | 147 nM
O=c1c(-c2ccc(F)cc2)c(-c2ccnc(NCC3CC3)n2)n2n1CCC2 | 94 nM
C[C@H](Nc1nccc(-c2c(-c3ccc(F)cc3)c(=O)n3n2CCCC3)n1)C(C)(C)O | 260 nM
C[C@H](Nc1nccc(-c2c(-c3ccc(F)cc3)c(=O)n3n2CCC3)n1)C1CCCCC1 | 38 nM
O=c1c(-c2ccc(F)cc2)c(-c2ccnc(NCc3ccccc3)n2)n2n1CCC2 | 74 nM
COCCCNc1nccc(-c2c(-c3ccc(F)cc3)c(=O)n3n2CCC3)n1 | 301 nM
O=c1c(-c2ccc(F)cc2)c(-c2ccnc(NCc3ccccn3)n2)n2n1CCC2 | 263 nM
O=c1c(-c2ccc(F)cc2)c(-c2ccnc(NCc3cccnc3)n2)n2n1CCC2 | 121 nM
O=c1c(-c2ccc(F)cc2)c(-c2ccnc(NC3CC3)n2)n2n1CCC2 | 78 nM

Further lines, results first:

IC50 | SMILES
37 nM | Cc1ccc([C@H](C)Nc2nccc(-c3c(-c4ccc(F)cc4)c(=O)n4n3CCC4)n2)cc1
30 nM | C=CCNc1nccc(-c2c(-c3ccc(F)cc3)c(=O)n3n2CCC3)n1
29 nM | C[C@H](Nc1nccc(-c2c(-c3ccc(F)cc3)c(=O)n3n2CCCC3)n1)c1ccccc1
27 nM | C[C@@H](Nc1nccc(-c2c(-c3ccc(F)cc3)c(=O)n3n2CCC3)n1)c1ccccc1
24 nM | CC(C)(C)Nc1nccc(-c2c(-c3ccc(F)cc3)c(=O)n3n2CCC3)n1
6 nM | O=c1c(-c2ccc(F)cc2)c(-c2ccnc(Nc3c(F)cccc3F)n2)n2n1CCC2
4 nM | O=c1c(-c2ccc(F)cc2)c(-c2ccnc(Nc3c(Cl)cccc3Cl)n2)n2n1CCC2
3 nM | C[C@H](Nc1nccc(-c2c(-c3ccc(F)cc3)c(=O)n3n2CCC3)n1)c1ccccc1
2 nM | CC[C@H](C)Nc1nccc(-c2c(-c3ccc(F)cc3)c(=O)n3n2CCC3)n1

Molecular target: MAPK14 (human) (UniProt Q16539)
Test: Inhibition of LPS Induced TNF-alpha Production in Human PBMC

IC50 | SMILES
16 nM | COC[C@H](C)Nc1nccc(-c2c(-c3ccc(F)cc3)c(=O)n3n2CCC3)n1
8 nM | C[C@H](Nc1nccc(-c2c(-c3ccc(F)cc3)c(=O)n3n2CCC3)n1)C(C)(C)O
0.4 nM | C[C@H](Nc1nccc(-c2c(-c3ccc(F)cc3)c(=O)n3n2CCC3)n1)c1ccccc1

Source: the Kinase Knowledgebase extract (Sharma et al. 2016)
